pIC50: −log10 of the molar value. One block for each compound: values may come before it.
Assays:
[1] = under these conditions; reference (34); cited from earlier work
[2] = target: T1, 42 kDa cellular protein previously identified as RPN13 (Homo sapiens, UniProt Q16186); assay: Labeling of ES2 cell lysate with biotinylated probes; format: binding; conditions: 45 min at 4° C., streptavidin-HRP
T1 construct: endogenous in cells; host or cells: ES2 cell lysate (clarified, in MPER buffer)
Description: (§1) ES2 cell lysates were incubated with 20 μM RA190B for 45 min at 4° C., and then separated by SDS-PAGE, transferred to a PVDF membrane.
The lysates were then separated by SDS-PAGE, transferred to a PVDF membrane.

[3] = target: T2, 42 kDa RPN13 (Homo sapiens, UniProt Q16186); assay: RA190B competitive labeling assay in ES2 cell lysate; format: binding; conditions: ES2 cell lysate pre-incubated 45 min at 4° C. (bortezomib or Up compounds 5 μM), then RA190B 20 μM
T2 construct: endogenous in cells; host or cells: ES2 cell lysate (clarified, in MPER buffer)
T2 sequence (Q16186 whole entry): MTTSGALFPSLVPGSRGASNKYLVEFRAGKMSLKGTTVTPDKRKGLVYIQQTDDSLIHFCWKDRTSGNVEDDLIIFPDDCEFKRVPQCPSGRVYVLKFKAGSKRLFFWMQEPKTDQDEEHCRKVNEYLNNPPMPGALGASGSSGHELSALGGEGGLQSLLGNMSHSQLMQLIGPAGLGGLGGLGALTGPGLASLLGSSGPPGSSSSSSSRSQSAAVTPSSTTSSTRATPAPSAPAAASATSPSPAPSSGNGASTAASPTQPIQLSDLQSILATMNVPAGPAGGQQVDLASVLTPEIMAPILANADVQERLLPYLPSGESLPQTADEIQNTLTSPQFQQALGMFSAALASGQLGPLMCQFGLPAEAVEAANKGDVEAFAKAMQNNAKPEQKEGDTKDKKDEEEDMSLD
Description: (§2) Clarified cell lysate (40 ug/sample) in MPER buffer was pretreated with streptavidin-coated magnetic beads for 45 min at 4° C. to deplete non-specific biotinylated proteins in the cell lysate. […] Next, the samples were mixed with Laemmli sample buffer (BioRad) and boiled for 5 min. The proteins were separated using a 4-15% Bio-Rad Mini-PROTEAN SDS-PAGE gel (1 hr at 100 V), and transferred to PVDF membrane overnight at 4° C. (24 V). The membrane was blocked with 5% BSA in PBST for 1 hr at RT and washed for 20 minutes (3× with PBST). Then the membrane was probed with HRP-streptavidin (1:10,000 in PBST) for 1 hr at RT, washed for 30 min (3× with PBST), and developed using HyGLO chemiluminescent detection reagent (Denville) for biotin detection.
as §1

[4] = tested on: high molecular weight polyubiquitinated proteins in SKOV3 cells; assay: Western blot for polyubiquitinated proteins, SKOV3 cells; format: cell-based; conditions: 12 hr, Up284 and RA475 0.5 and 1 μM, RA190 1 μM
Description: Cell lysate (10-20 μg total protein) prepared in MPER (Pierce) from each sample was subjected to SDS-PAGE, transferred to PVDF membranes and analyzed by Western blot using antibodies specific for ubiquitin (P4D1, sc-8017, Santa Cruz), or after stripping antibody for actin (#66009, Protein Tech Group), at the dilutions recommended by the manufacturers, and for secondary antibodies either peroxidase-linked anti-mouse IgG or anti-rabbit IgG (GE Healthcare UK Ltd) were utilized at the recommended dilution. The blots were developed using HyGLO chemiluminescent detection reagent (Denville).
Like RA190, RA475 was designed to be an inhibitor of upstream 19S RP proteasome function. […] Treatment with the same doses of Up284 (0.5 and 1 μM) or 1 μM RA190 provided positive controls, and vehicle alone (DMSO) was used as the negative control. At the end of the incubation, attached cells were lysed using MPER buffer according to the manufacturer's protocol. The lysates were subjected to Western blot analysis using antibody to ubiquitin, and then stripped and re-probed with actin antibody to provide a loading control (FIG. 5).
Proteasome inhibitors cause a rapid accumulation of polyUb proteins that is associated with unresolved UPR stress and the induction of apoptosis. Since RA475 is cytotoxic to ovarian cancer cells (Table 1), and induces such a rapid accumulation of polyUb proteins (FIG. 5), it was examined whether RA475 also triggered apoptosis. SKOV3 cells (FIG. 5A) were treated with Up284 (0.5 μM and 1 μM), 1 μM RA190, RA475 (0.5 μM and 1 μM) or vehicle alone (DMSO) and then cultured for 12 hr. OVCAR3 cells (FIG. 5B) were treated with Up284 (0.5 μM), Bortezomib (Bz, 0.25 μM), Ixazomib (Iz, 0.25 μM), RA475 (0.5 μM and 1 μM) or vehicle alone (DMSO). The attached cells were harvested and their lysates were subjected to Western blot analysis, first probed with antibody to ubiquitin and then to actin.

[5] = tested on: PACS; assay: MTT cytotoxicity assay, PACS; format: cell-based; conditions: ovarian (mouse), 72 hr, read-out: IC50, cell killing
Description: (§3) All cell lines were obtained from the American Type Culture Collection (ATCC) and cultured in the specified medium supplemented with 10% fetal bovine serum, 100 IU/mL penicillin, and 100 μg/mL streptomycin at 37° C. in a humidified 5% CO2/95% air incubator. To assess drug cytotoxicity cells were seeded at 2,500 cells/well (10,000 cells/well for MM lines and primary cells) in 100 μL medium in 96-well plate. […]
(§4) It was examined whether the RPN13 inhibitor, RA475, was cytotoxic for cancer cell lines using the MTT assay.

[6] = tested on: PEA1; assay: MTT cytotoxicity assay, PEA1; format: cell-based; conditions: PEA1, ovarian, 72 hr, read-out: IC50, cell killing
Description: as §3, §4

[7] = tested on: PEA2; assay: MTT cytotoxicity assay, PEA2; format: cell-based; conditions: PEA2, ovarian, 72 hr, read-out: IC50, cell killing
Description: as §3, §4

[8] = target: T3, 42 kDa cellular protein, consistent with RPN13 (Homo sapiens, UniProt Q16186); assay: Up284B competitive labeling assay in SKOV3 or ES2 cell lysates; format: binding; conditions: pre-cleared SKOV3 or ES2 lysates, 45 min at 4° C., then 5 μM Up284B
T3 construct: endogenous in cells; host or cells: SKOV3 or ES2 cell lysates, pre-cleared with streptavidin-coated beads
T3 sequence (Q16186 whole entry): as above
Description: as §2
Briefly SKOV3 or ES2 cell lysates were first pre-cleared with streptavidin-coated beads to deplete endogenous biotinylated proteins. The pre-cleared lysates were then divided into equal aliquots. […] The lysates were then boiled in gel sample buffer, separated by SDS-PAGE, and transferred to a PVDF membrane.

T1 sequence (Q16186 whole entry): as above

Compound: N[C@@H](Cc1ccccc1)C(=O)N1C/C(=C\c2ccc([N+](=O)[O-])cc2)C(=O)/C(=C/c2ccc([N+](=O)[O-])cc2)C1 [RA183]
metabolism under the plasma / liver microsome conditions [1]: rapidly metabolized

Compound: N[C@@H](Cc1ccccc1)C(=O)N1C/C(=C\c2ccc(Cl)c(Cl)c2)C(=O)/C(=C/c2ccc(Cl)c(Cl)c2)C1 [RA190]
competition with binding of RA190B to the 42 kDa RPN13 [3]: competed with the binding of RA190B to the 42 kDa protein
accumulation of polyUb proteins [4]: profound accumulation
metabolism under the plasma / liver microsome conditions [1]: rapidly metabolized

Compound: N#Cc1ccc(/C=C2/C(=O)/C(=C/c3ccc(C#N)cc3)C23CCN(C(=N)N)C3)cc1 [RA477]
pIC50 [5]: 6.39
pIC50 [6]: 6.48
pIC50 [7]: 6.51

Compound: C=CC(=O)N1CCC2(CC1)/C(=C\c1ccc(C#N)cc1)C(=O)/C2=C/c1ccc(C#N)cc1 [Up285]
competition with binding of RA190B to the 42 kDa RPN13 [3]: competed

The next lines start with results.

binding of biotinylated probe to the 42 kDa cellular protein [2]: bound to the 42 kDa cellular protein
Compound: O=C(CCCC[C@@H]1SCC2NC(=O)NC21)N[C@@H](Cc1ccccc1)C(=O)N1C/C(=C\c2ccc(Cl)c(Cl)c2)C(=O)/C(=C/c2ccc(Cl)c(Cl)c2)C1 (some centres unmarked) [RA190B]

competition with binding of Up284B probe to RPN13 [8]: not competed
Compound: CC(C)C[C@H](NC(=O)[C@H](Cc1ccccc1)NC(=O)c1cnccn1)B(O)O [bortezomib, reference compound]
competition with binding of RA190B to the 42 kDa RPN13 [3]: neither the vehicle (DMSO) nor bortezomib (negative controls) competed

Source: patent US12410141B2, “Anti-cancer spirocyclic-guanidine compounds and uses thereof” (The Johns Hopkins University, priority 2020, dated 2025)
